Test results: patent publication US6677456B2, “Pentacyclic taxan compound” (Daiichi Pharmaceutical Co., Ltd., priority 1999, dated 2004)
Read-outs that look alike come from different tables or passages of the source.

Assays:
human liver microsome = experiment: Metabolism in Human Microsome P450 (Test Example 3)
Description: Each of the samples to be evaluated was dissolved in acetonitrile/water (1:1, v/v) to a concentration of 500 μM, and the solution was mixed with human liver microsome (Xenotech LLC) and other components such as various coenzymes and buffer solution and allowed to generate the metabolic reaction at 37° C. The reaction solution was composed of phosphate buffer (0.076 M; final concentration, the same shall apply hereinafter), sample to be evaluated (10 μM), human liver microsome (1 mg/ml), glucose 6-phosphate (10 mM), glucose-6-phosphate dehydrogenase (1 unit/ml), magnesium chloride (4 mM) and reduced nicotinamide adenine dinucleotide phosphate (β-NADPH, 1 mM), and 500 μl of the solution was used in one reaction. In this case, the reaction solution excluding β-NADPH was incubated in advance at 37° C. for 2 minutes and then the reaction was started by adding a β-NADPH aqueous solution (50 mM, 10 μl).
The reaction was terminated by adding 1 ml of ice-cooled acetonitrile 1, 2 or 5 minutes after commencement of the reaction.
In this connection, a sample of 0 minute after commencement of the reaction was prepared by adding water instead of the β-NADPH aqueous solution and immediately adding 1 ml of acetonitrile. A 100 μl portion of an internal standard substance was added to each of these samples, and the reaction solution was centrifuged for 15 minutes. The resulting supernatant was injected into a high performance liquid chromatography (HPLC) to measure concentration of the sample to be evaluated. […] By plotting the amount of formed metabolite against the reaction time and carrying out linear regression by the method of least squares, amount of the metabolite formed per 1 minute (metabolic rate constant: k (nmol/min/mg protein)) was calculated from the slope.
From the thus obtained metabolic rate constant k (nmol/min/mg protein), the liver-specific clearance (CLint) was calculated by the following formula. […]
Theoretical bioavailability (F) value was calculated from the CLh by the following formula.

B16 Melanoma BL6 = experiment: Antitumor test, B16 Melanoma BL6 subcutaneously transplanted into mice (Test Example 2); format: in vivo, mice (C57BL/6); conditions: 4 days after transplantation, tumor weight after 15 days
Description: B16 Melanoma BL6 was subcutaneously transplanted into mice (C57BL/6), and each compound was administered 4 days thereafter. […] In the case of oral administration, each compound was administered by suspending it in a 0.5% carboxymethylcellulose sodium aqueous solution. Each animal was anatomized after 15 days of the transplantation to measure tumor weight. Antitumor effect was calculated by the following formula.
(§1) {1−(tumor weight of compound-administered group/tumor weight of solvent-administered group)}×100
Six mice were used in each group.

[1] = Blood concentration and oral BA in monkey after single intravenous or oral dose (Test Example 4); format: in vivo, female Macaca irus (monkey); conditions: for Oral BA: ratio of oral AUC to intravenous AUC; for AUC(0-inf): female, Macaca irus (cynomolgus), blood
Description: The AUCO0-∞ means area under the blood concentration time curve of a drug concentration in blood during a period of from the time of administration (0 h) to the infinite time and it can be calculated in accordance with the method (trapezoidal rule) disclosed in Kiyoshi Yamaoka and Yusuke Tanigawara, Yakubutsu Sokudoron Nyumon (A Guide to Pharmacokinetics), pages 116-117. In addition, ratio of the AUC at the time of oral administration to the AUC at the time of intravenous administration was calculated as oral BA.
Animal: female Macaca irus, Administration method (compound of formula (B)) [intravenous] EtOH:Tween 80:5% glucose=5:5:90, [oral] […] 10% β-CyD-SBE7 (pH=3.5 in physiological saline), [oral] 40 mM acetate buffer (pH 4.0)

[2] = system: Mouse fibrosarcoma Meth A; experiment: Antitumor test, mouse fibrosarcoma Meth A subcutaneously transplanted into mice (Test Example 1); format: in vivo, mice (Balb/c); conditions: intravenous, tumor weight on 17th day
Description: (§2) Mouse fibrosarcoma Meth A was subcutaneously transplanted into mice (line name; Balb/c), and each compound dissolved in a mixed solvent of ethanol, Tween 80 and 5% glucose (5:5:90 (v/v)) was administered by intravenous injection after 6, 8 or 10 days (or only after 6 days) of the transplantation. Each animal was anatomized on the 17th day to examine tumor weight, platelet numbers and renal toxicity. Six mice were used in each group.
Antitumor effect was calculated by the following formula.
as §1

[3] = Platelet numbers, renal toxicity findings and deaths in the Meth A-bearing mice (Test Example 1); format: in vivo, mice (Balb/c); conditions: intravenous, 17th day; for Platelet numbers: % of solvent-administered group
Description: as §2
The number of platelets was expressed by (platelets of compound-administered group/platelets of solvent-administered group)×100.
The renal toxicity findings were expressed as “changed” when a change such as fading was found by macroscopic observation at the time of anatomy or when a change such as precipitation of hyaline droplet substance in the renal tubular cell cytoplasm was found by a histological inspection.

(1S,2S,3R,4S,5R,8R,9S,10R,13S)-4-Acetoxy-2-benzoyloxy-5,20-epoxy-1-hydroxy-9,10-[(1S)-2-(morpholino)ethylidenedioxy]tax-11-en-13-yl (2R,3S)-3-(tert-butoxycarbonylamino)-3-(5-fluoro-2-pyridyl)-2-hydroxypropionate [Example 3]
Theoretical F value of unchanged compound (human liver microsome; calculated from CLh (Well-stirred model, Q 20 ml/min/kg)): 0.92
Metabolic rate constant (human liver microsome; human liver microsome 1 mg/ml, sample 10 μM, 37° C., 0-5 minutes): 0.02 nmol/min/mg protein
Clint (human liver microsome; liver-specific clearance calculated from the metabolic rate constant): 1.8 mL/min/kg

CC(=O)O[C@@]12CO[C@@H]1CC[C@@]1(C)[C@@H]3O[C@H](CN(C)C)O[C@@H]3C3=C(C)[C@@H](OC(=O)[C@H](O)[C@@H](NC(=O)OC(C)(C)C)c4ncccc4F)C[C@@](O)([C@@H](OC(=O)c4ccccc4)[C@@H]12)C3(C)C [Example 7, (1S,2S,3R,4S,5R,8R,9S,10R,13S)-4-Acetoxy-2-benzoyloxy-9,10-[(1S)-2-(dimethylamino)ethylidenedioxy]-5,20-epoxy-1-hydroxytax-11-en-13-yl (2R,3S)-3-(tert-butoxycarbonylamino)-3-(3-fluoro-2-pyridyl)-2-hydroxypropionate]
Antitumor effect (B16 Melanoma BL6; 7.9 mg/kg intravenous): 91.5%
Antitumor effect (B16 Melanoma BL6; 7.9 mg/kg oral): 91.5%
Antitumor effect (B16 Melanoma BL6; 11.9 mg/kg intravenous): 95.5%
Antitumor effect (B16 Melanoma BL6; 11.9 mg/kg oral): 97.4%
Oral BA ([1]; 1.8 mg/kg): 62.4%
AUC(0-inf) ([1]; single dose 1.8 mg/kg intravenous, average of 4 monkeys, read-out: AUC0-∞ Intravenous): 994 ng·h/mL
AUC(0-inf) ([1]; single dose 1.8 mg/kg oral, average of 4 monkeys, read-out: AUC0-∞ Oral): 621 ng·h/mL

CC(=O)O[C@@]12CO[C@@H]1C[C@H](O)[C@@]1(C)C(=O)[C@H](O)C3=C(C)[C@@H](OC(=O)[C@H](O)[C@@H](NC(=O)OC(C)(C)C)c4ccccc4)C[C@@](O)([C@@H](OC(=O)c4ccccc4)[C@H]21)C3(C)C [(A), taxotere]
Antitumor effect (B16 Melanoma BL6; 180.0 mg/kg intravenous): 95.7%
Antitumor effect (B16 Melanoma BL6; 600.0 mg/kg oral): 6.2%

COc1ccc([C@H](NC(=O)OC(C)(C)C)[C@@H](O)C(=O)O[C@H]2C[C@@]3(O)[C@@H](OC(=O)c4ccccc4)[C@H]4[C@@](C)(CC[C@H]5OC[C@]54OC(C)=O)[C@@H]4O[C@H](CN5CCOCC5)O[C@@H]4C(=C2C)C3(C)C)nc1 [Example 1, (1S,2S,3R,4S,5R,8R,9S,10R,13S)-4-Acetoxy-2-benzoyloxy-5,20-epoxy-1-hydroxy-9,10-[(1S)-2-(morpholino)ethylidenedioxy]tax-11-en-13-yl (2R,3S)-3-(tert-butoxycarbonylamino)-2-hydroxy-3-(5-methoxy-2-pyridyl)propionate]
melting point: 160 to 161 °C

CC(=O)O[C@@]12CO[C@@H]1CC[C@@]1(C)[C@@H]3O[C@H](CN4CCOCC4)O[C@@H]3C3=C(C)[C@@H](OC(=O)[C@H](O)[C@@H](NC(=O)OC(C)(C)C)c4ccccn4)C[C@@](O)([C@@H](OC(=O)c4ccccc4)[C@@H]12)C3(C)C [Compound (B)]
Antitumor effect (B16 Melanoma BL6; 13.3 mg/kg oral): 90.5%
Antitumor effect (B16 Melanoma BL6; 20.0 mg/kg oral): 97.4%
Antitumor effect ([2]; 22.5 mg/kg × 1 (day 6)): 69%
Antitumor effect ([2]; 32.4 mg/kg × 1 (day 6), three deaths among 6 animals): 83%
Platelet numbers ([3]; 22.5 mg/kg × 1): 124%
Renal toxicity findings ([3]; 32.4 mg/kg × 1): no change
Platelet numbers ([3]; 32.4 mg/kg × 1): 142%
Oral BA ([1]; 1.6 mg/kg): 7.1%
AUC(0-inf) ([1]; single dose 1.6 mg/kg intravenous, one monkey, read-out: AUC0-∞ Intravenous): 394 ng·h/mL
AUC(0-inf) ([1]; single dose 1.6 mg/kg oral, one monkey (different individual), read-out: AUC0-∞ Oral): 28.1 ng·h/mL
Oral absorption property in monkey (in words) ([1]; in vivo, po): low
